The source of these data is patent US9249104B2, “Pyrazole indanyl carboxamides” (BAYER CROPSCIENCE AG, priority 2012, dated 2016).

In one data set the test system is Sphaerotheca fuliginea. Kind of data set: In vivo preventive test on Sphaerotheca fuliginea (powdery mildew on cucurbits). To be noted: 500 ppm, gherkin plants sprayed 24 h before contamination, graded 12 days after contamination. Here is the method: Gherkin plants (“Vert petit de Paris” variety), sown in starter cups on a 50/50 peat soil-pozzolana substrate and grown at 24° C., are treated at the Z11 cotyledon stage by spraying with the active ingredient prepared as described above. Plants, used as controls, are treated with the mixture of acetone/tween/DMSO/water not containing the active material. After 24 hours, the plants are contaminated by spraying the cotyledons with an aqueous suspension of Sphaerotheca fuliginea spores (100 000 spores per ml). The spores are collected from infected plants. […] Grading (% of efficacy) is carried out 12 days after the contamination, in comparison with the control plants.

The nature of data set [1]: logP by HPLC on reversed phase columns (EEC directive 79/831 Annex V.A8). Type of data set: physicochemical. The note with it: method [a]: LC-MS at pH 2.7, 0.1% formic acid in water / acetonitrile; compounds of formula (I), Table 1.
A further data set concerns Puccinia recondita. Kind of data set: In vivo preventive test on Puccinia recondita (brown rust on wheat). The note with it: 500 ppm, wheat plants sprayed 24 h before contamination, graded 12 days after contamination. Here is the method: Wheat plants (“Scipion” variety), sown in starter cups on a 50/50 peat soil-pozzolana substrate and grown at 22° C., are treated at the 1-leaf stage (10 cm height) by spraying with the active ingredient prepared as described above. Plants, used as controls, are treated with the mixture of acetone/tween/DMSO/water not containing the active material. After 24 hours, the plants are contaminated by spraying the leaves with an aqueous suspension of Puccinia recondita spores (100 000 spores per ml). The spores are collected from an infected plant and are suspended in water to containing 2.5 ml/l of Tween 80 at 10%. […] Grading (% of efficacy) is carried out 12 days after the contamination, in comparison with the control plants.

For a further data set, the system named is Alternaria brassicae. Kind of data set: In vivo preventive test on Alternaria brassicae (leaf spot on radish). To be noted: 500 ppm, radish plants sprayed 24 h before contamination, graded 6 days after contamination. As for the experimental part:
Radish plants (“Pernod Clair” variety), sown in starter cups on a 50/50 peat soil-pozzolana substrate and grown at 17° C., are treated at the cotyledon stage by spraying with the active ingredient prepared as described above. Plants, used as controls, are treated with the mixture of acetone/tween/DMSO/water not containing the active material. After 24 hours, the plants are contaminated by spraying the cotyledons with an aqueous suspension of Alternaria brassicae spores (50 000 spores per ml). The spores are collected from a 15-day-old culture. The contaminated radish plants are incubated at 20° C. and at 100% relative humidity. Grading (% of efficacy) is carried out 6 days after the contamination, in comparison with the control plants.

For another data set, the system named is Septoria tritici. Nature of the data set: In vivo preventive test on Septoria tritici (leaf spot on wheat). To be noted: 500 ppm, wheat plants sprayed 24 h before contamination, graded 24 days after contamination. As for the experimental part: Wheat plants (“Scipion” variety), sown in starter cups on a 50/50 peat soil-pozzolana substrate and grown at 22° C., are treated at the 1-leaf stage (10 cm height) by spraying with the active ingredient prepared as described above. Plants, used as controls, are treated with the mixture of acetone/tween/DMSO/water not containing the active material. After 24 hours, the plants are contaminated by spraying the leaves with an aqueous suspension of cryopreserved Septoria tritici spores (500 000 spores per ml). The contaminated wheat plants are incubated for 72 hours at 18° C. and at 100% relative humidity, and then for 21 days at 90% relative humidity. Grading (% of efficacy) is carried out 24 days after the contamination, in comparison with the control plants.

The subject of a further data set is Uromyces appendiculatus. Kind of data set: In vivo preventive test on Uromyces appendiculatus (bean rust). To be noted: preventive, bean plants, dose of 500 ppm, grading 11 days after contamination. As for the experimental part:
Bean plants (“Saxa” variety), sown in starter cups on a 50/50 peat soil-pozzolana substrate and grown at 24° C., are treated at the 2-leaf stage (9 cm height) by spraying with the active ingredient prepared as described above. Plants, used as controls, are treated with the mixture of acetone/tween/DMSO/water not containing the active material. After 24 hours, the plants are contaminated by spraying the leaves with an aqueous suspension of Uromyces appendiculatus spores (150 000 spores per ml). The spores are collected from infected plants and are suspended in water containing 2.5 ml/1 of Tween 80 at 10%. […] Grading (% of efficacy) is carried out 11 days after the contamination, in comparison with the control plants.

A further data set has as its system Pyrenophora teres. Kind of data set: In vivo preventive test on Pyrenophora teres (net blotch on barley). The note with it: 500 ppm, barley plants sprayed 24 h before contamination, graded 14 days after contamination. Here is the method:
Barley plants (“Plaisant” variety), sown in starter cups on a 50/50 peat soil-pozzolana substrate and grown at 22° C., are treated at the 1-leaf stage (10 cm height) by spraying with the active ingredient prepared as described above. Plants, used as controls, are treated with the mixture of acetone/tween/DMSO/water not containing the active material. After 24 hours, the plants are contaminated by spraying the leaves with an aqueous suspension of Pyrenophora teres spores (12 000 spores per ml). The spores are collected from a 12-day-old culture. […] Grading (% of efficacy) is carried out 14 days after the contamination, in comparison with the control plants.

On to `CC(C)C1Cc2c(NC(=O)c3cn(C)nc3C(F)F)cccc2C1(C)C` (centres unmarked) [Example 39], for which the Eff. % is reported as 100% with Sphaerotheca fuliginea; 98% with Puccinia recondita; 98% in the data set with Alternaria brassicae; 71% in the data set with Septoria tritici; 100% with Uromyces appendiculatus. Moreover, in data set [1], the logP is 4.27[a].

Turning to `Cn1cc(C(=O)Nc2cccc3c2CC(O)C3)c(C(F)F)n1` (centres unmarked) [Example 1], the Eff. % in the data set on Septoria tritici is reported as 70%.

As to `CCC1Cc2c(NC(=O)c3c(C(F)(F)F)nn(C)c3F)cccc2C1(C)C` (centres unmarked) [Example 50], the Eff. % in the data set on Sphaerotheca fuliginea came to 98%; in the data set with Puccinia recondita it was 98%; in the data set with Alternaria brassicae, 88%; in the data set on Uromyces appendiculatus, 100%. The logP in data set [1] is 4.51[a].

Regarding `Cc1nn(C)c(C(F)F)c1C(=O)Nc1cccc2c1CC(C)C2(C)C` (racemic) [Example 87], in data set [1], the logP was 3.96[a]. Further, the Eff. % is listed as 100% in the data set on Puccinia recondita, 92% with Septoria tritici and 100% in the data set with Uromyces appendiculatus.

`CC1c2cccc(NC(=O)c3cn(C)nc3C(F)(F)F)c2CC1(C)C` (centres unmarked) [Example 15]: the Eff. % was found to be 100% with Sphaerotheca fuliginea, 96% with Puccinia recondita, 86% in the data set on Alternaria brassicae and 100% with Uromyces appendiculatus. Moreover, in data set [1], the logP is 3.74[a].

`[2H]C1(C)Cc2cccc(NC(=O)c3cn(C)nc3C(F)F)c2C1` (centres unmarked) [Example 26]: the Eff. % in the data set on Sphaerotheca fuliginea is on record as 89%; in the data set on Puccinia recondita, 100%; with Septoria tritici, 100%; in the data set with Uromyces appendiculatus, 100%. The logP in data set [1] is 2.94[a].

As to `CC1Cc2c(NC(=O)c3cn(C)nc3I)cccc2C1(C)C` (racemic) [Example 75], the Eff. % in the data set with Sphaerotheca fuliginea was 78%; in the data set on Puccinia recondita, 98%; in the data set on Septoria tritici, 79%; in the data set on Uromyces appendiculatus it was 100%. Further, the logP in data set [1] was 3.64[a].

With `Cc1nn(C)c(Cl)c1C(=O)Nc1cccc2c1CC(C(C)C)C2(C)C` (racemic) [Example 69], the Eff. % was 72% in the data set on Sphaerotheca fuliginea, 75% in the data set with Pyrenophora teres, 88% with Puccinia recondita and 100% in the data set with Uromyces appendiculatus. The logP in data set [1] is 4.76[a].

On to `CC1c2c(NC(=O)c3cn(C)nc3C(F)(F)F)cccc2C(C)(C)C1C` (centres unmarked) [Example 31], for which the Eff. % in the data set with Sphaerotheca fuliginea amounted to 72%; with Puccinia recondita, 94%; with Alternaria brassicae, 80%; in the data set on Septoria tritici, 79%; in the data set with Uromyces appendiculatus, 100%. In addition, the logP in data set [1] was 3.76[a].

With `Cn1cc(C(=O)Nc2cccc3c2CC(C)(C)C3)c(C(F)F)n1` [Example 45], the Eff. % in the data set with Sphaerotheca fuliginea worked out at 100%; with Puccinia recondita, 98%; in the data set on Septoria tritici it was 97%; in the data set with Uromyces appendiculatus it was 100%. In addition, the logP in data set [1] was 3.21[a].

For the molecule `CCC1(CC)Cc2c(NC(=O)c3cn(C)nc3C(F)F)cccc2C1C` (racemic) [Example 79], the Eff. % turned out to be 100% in the data set with Sphaerotheca fuliginea; 98% with Puccinia recondita; 95% in the data set with Alternaria brassicae; 98% with Septoria tritici; 100% in the data set with Uromyces appendiculatus. In addition, the logP in data set [1] is 4.27[a].

As to `CON=C1c2cccc(NC(=O)c3cn(C)nc3C(F)(F)F)c2CC1(C)C` (mixture of isomers) [Example 30], the figures for the Eff. % in the data set with Sphaerotheca fuliginea, in the data set with Puccinia recondita and with Septoria tritici were 98%, 86% and 100%, respectively.

On to `Cc1c(C(=O)Nc2cccc3c2CC(C)C3(C)C)cnn1C` (racemic) [Example 71], for which the logP in data set [1] is 3[a]. Besides, the Eff. % in the data set with Puccinia recondita is given as 81%; with Septoria tritici, 97%; in the data set with Uromyces appendiculatus, 79%.

`CC(C)CC1Cc2cccc(NC(=O)c3cn(C)nc3C(F)F)c2C1` (centres unmarked) [Example 4]: the Eff. % stood at 70% in the data set on Sphaerotheca fuliginea; 93% in the data set with Puccinia recondita; 93% in the data set with Alternaria brassicae; 85% in the data set on Septoria tritici; 100% in the data set with Uromyces appendiculatus.

For `CC1Cc2c(NC(=O)c3cnn(C)c3Cl)cccc2C1(C)C` (centres unmarked) [Example 22], the logP in data set [1] was 3.44[a]. Further, the values for the Eff. % with Puccinia recondita and with Septoria tritici were 81% and 92%, respectively.

Consider `Cn1cc(C(=O)Nc2cccc3c2CC2CCCCC32)c(C(F)F)n1` (centres unmarked) [Example 24], for which the Eff. % in the data set with Pyrenophora teres was 86%; in the data set on Puccinia recondita, 89%; with Uromyces appendiculatus, 100%. For the same molecule, the logP in data set [1] was 3.81[a].

Turning to `CON=C1c2cccc(NC(=O)c3cn(C)nc3C(F)F)c2CC1(C)C` (mixture of isomers) [Example 32], the Eff. % in the data set with Sphaerotheca fuliginea was found to be 98%; in the data set on Puccinia recondita, 93%; with Alternaria brassicae, 75%; in the data set on Septoria tritici it was 100%.

For the molecule `CCC1Cc2c(NC(=O)c3c(C)nn(C)c3C)cccc2C1(C)C` (centres unmarked) [Example 38], the logP in data set [1] was 3.55[a]. Moreover, the results for the Eff. % with Puccinia recondita, in the data set with Alternaria brassicae and with Uromyces appendiculatus were 100%, 80% and 100%, respectively.

On to `CC(C)C1Cc2c(NC(=O)c3cn(C)nc3C(F)(F)F)cccc2C1(C)C` (centres unmarked) [Example 40], for which the Eff. % in the data set on Sphaerotheca fuliginea was determined as 100%; with Puccinia recondita it was 98%; in the data set on Alternaria brassicae, 89%; in the data set on Septoria tritici, 93%; in the data set with Uromyces appendiculatus it was 100%. Besides, in data set [1], the logP was 4.46[a].

As for `CC1c2cccc(NC(=O)c3cn(C)nc3C(F)(F)F)c2CC1(C)C` (centres unmarked) [Example 52], the Eff. % stood at 98% in the data set with Sphaerotheca fuliginea, 100% with Puccinia recondita, 94% with Septoria tritici and 100% in the data set on Uromyces appendiculatus. Further, the logP in data set [1] was 3.72[a].

As to `CCC1Cc2c(NC(=O)c3c(C)nn(C)c3Cl)cccc2C1(C)C` (racemic) [Example 68], in data set [1], the logP was 4.32[a]. The Eff. % in the data set on Puccinia recondita is given as 100%; with Alternaria brassicae, 75%; with Uromyces appendiculatus, 100%.

Take `Cc1nn(C)c(C)c1C(=O)Nc1cccc2c1CC(C)(C)C2C` (centres unmarked) [Example 55]: the results for the Eff. % in the data set on Sphaerotheca fuliginea, with Puccinia recondita and with Uromyces appendiculatus were 88%, 100% and 100%, respectively. The logP in data set [1] is 3.09[a].

As to `Cc1nn(C)c(F)c1C(=O)Nc1cccc2c1CC(C(C)C)C2(C)C` (centres unmarked) [Example 41], the Eff. % is reported as 100% in the data set on Sphaerotheca fuliginea; 100% with Puccinia recondita; 78% in the data set on Alternaria brassicae; 71% in the data set with Septoria tritici; 100% with Uromyces appendiculatus. The logP in data set [1] was 4.34[a].

On to `CCC1(CC)Cc2c(NC(=O)c3cn(C)nc3C(F)(F)F)cccc2C1C` (racemic) [Example 74], for which the Eff. % with Sphaerotheca fuliginea was 98%; with Puccinia recondita it was 98%; with Septoria tritici, 94%; in the data set with Uromyces appendiculatus, 100%. Further, the logP in data set [1] is 4.46[a].
